Entries after “also recorded” stand apart in the source; their conditions may differ.
How the values were obtained:
SLAMF1 = SLAMF1 expression in PA treated HepG2 cells (immunocytochemistry, Western blot, q-PCR, conditioned medium); type: cell-based, human; details: for SLAMF1 mRNA (q-PCR) / SLAMF1 protein (immunocytochemistry, Western blot): HepG2 cells, PA 24 h
Source text: FIGS. 7A-7C show SLAMF1 increases in PA treated HepG2 cells.
Non-alcoholic fatty liver disease (NAFLD) is one of the most common forms of chronic liver disease. NAFLD's initial phase involves hepatic steatosis (triglyceride accumulation in hepatocytes). NAFLD can rapidly progress to non-alcoholic steatohepatitis (NASH). NASH is characterized by increased oxidative stress, lipid peroxidation, inflammation, mitochondria dysfunction, and hepatocyte death and fibrosis. If untreated, NASH leads to cirrhosis, and in some cases, hepatocellular carcinoma. […] Therefore, it is critical to understand the mechanisms responsible for NAFLD progression to NASH to develop efficient therapies and find disease progression biomarkers. Signaling lymphocytic activation molecule 1 (SLAMF1) protein is a self-ligand receptor involved in regulating the immune response to viruses and cancer. In the present disclosure, the inventors discovered that hepatocytes from NASH liver samples from humans and mice express high levels of SLAMF1. To confirm these findings, the inventors used palmitic acid-treated HepG2 hepatocytes as an “in vitro” model of NASH. […] Based on the inventors' experimental results, SLAMF1 may be used as both a therapeutic and a diagnostic target (including soluble form) for NAFLD and NASH.
Referring to FIGS. 6A-8E, the involvement of SLAMF1 in the progression of NASH was explored in human hepatocarcinoma cells HepG2.

HepG2 cells = assay: Palmitic acid lipotoxicity in HepG2 cells (MTT, lactate dehydrogenase, AnV cytometry, cleaved caspase 3 p17 western blot); type: cell-based, human; details: PA 24 h
SLAMF 1 = assay: Palmitic acid treatment of human hepatocytes in culture, SLAMF1 protein by western blot and immunofluorescence; type: cell-based; details: for SLAMF1 level normalized to Tubulin, relative to control: western blot, n=3; for SLAMF 1 protein levels by immunofluorescence staining: palmitic acid vs vehicle
Procedure: Hepatocytes were treated with two different doses of palmitic acid (0.4 and 0.8 mM). […] The 0.4 mM dose has a SLAMF1 level of 2.3 times the control level. The 0.8 mM dose has a SLAMF1 level of 5.8 times the control level. […] Representative immunofluorescence staining of hepatocytes treated with vehicle (left panel) or palmitic acid (right panel). Caveolin antibody (red, to label the membrane of the cells), SLAMF 1 antibody (green) and the nuclear marker DAPI (blue). Protein levels of SLAMF 1 are elevated in response to palmitic acid (right panel). The data represents n=4 samples per group. All samples were a courtesy of Pathology Department. All pictures were acquired on a Leica TCS SP5 Spectral Confocal Microscope equipped with a ×40 (oil) objective.

## CCCCCCCCCCCCCCCC(=O)O [palmitic acid]
SLAMF1
  SLAMF1 mRNA (q-PCR): significant increases
  SLAMF1 protein (immunocytochemistry, Western blot): significant increases
SLAMF1; listed as PA
  SLAMF1 mRNA (q-PCR): increases
  SLAMF1 protein (immunocytochemistry, Western blot): increases SLAMF1 protein
SLAMF1; palmitic acid-treated hepatocytes
  SLAMF1 in culture/conditioned medium: secrete SLAMF1 in the culture medium; also recorded: increases SLAMF1 both in cells and conditioned medium
HepG2 cells
  apoptosis (AnV by cytometry, cleaved caspase 3 p17 by western blot): induced apoptosis
  cell viability (MTT): reduces cell viability
  cytotoxicity (Lactate dehydrogenase activity in conditioned medium): increases cytotoxicity
SLAMF 1; 0.4 mM palmitic acid
  SLAMF1 level normalized to Tubulin, relative to control: 2.3 times the control level
SLAMF 1; 0.8 mM palmitic acid
  SLAMF1 level normalized to Tubulin, relative to control: 5.8 times the control level
SLAMF 1; 0.4 and 0.8 mM palmitic acid
  SLAMF 1 protein levels: dose dependent increase
SLAMF 1; n=4
  SLAMF 1 protein levels by immunofluorescence staining: significant increase in SLAMF1 levels
SLAMF 1; n=4, listed as Palmitic acid
  SLAMF 1 protein levels by immunofluorescence staining: elevated
